Assay results: ChEMBL document CHEMBL4483862, “Open-source discovery of chemical leads for next-generation chemoprotective antimalarials” (2018)

System: Plasmodium berghei
Assay: Luciferase/luciferin-expressing antifolate-resistant parasites were used to infect a culture of HepG2 cells that were pre-incubated with compounds. Infected hepatocytes emit light due to the luciferase reaction. Assay results are presented as the percent inhibition of light emission compared to control. […]
Assay type: functional
Settings: sporozoite; for IC90: read-out: LUCIFERASE INFECTION ASSAY - IC90
[1] = read-out: LUCIFERASE INFECTION ASSAY - IC50

SMILES: Cc1nc2ccccn2c1-c1ccnn1S(=O)(=O)c1ccc(F)cc1
- IC50 (HEPG2TOX_HILL_SLOPE 1.46, HEPG2TOX_R_SQUARED 0.888, PBLUC_HILL_SLOPE 12.2, PBLUC_R_SQUARED 0.241, read-out: LUCIFERASE INFECTION ASSAY - IC50): 3.16 µM
- IC90: 3.78 µM

SMILES: OC1CCN(c2nn3cc(-c4ccccc4)nc3s2)CC1
- IC50 (FFLUC_HILL_SLOPE 1.04, FFLUC_R_SQUARED 0.865, PBLUC_HILL_SLOPE 0.617, PBLUC_R_SQUARED 0.864, read-out: LUCIFERASE INFECTION ASSAY - IC50): 0.0272 µM
- IC90: 0.954 µM

SMILES: Cc1ccc(C(C)C)c(OCc2ccc(C(=O)N/N=C/c3cccc(O)c3O)cc2)c1
- IC50 (HEPG2TOX_HILL_SLOPE 2.51, HEPG2TOX_R_SQUARED 0.938, PBLUC_HILL_SLOPE 16, PBLUC_R_SQUARED 0.0407, read-out: LUCIFERASE INFECTION ASSAY - IC50): 9.9 µM
- IC90: > 10 µM

SMILES: N#Cc1ccsc1NC(=O)CCN1CCN(Cc2c(F)cccc2Cl)CC1
- IC50 [1]: > 10 µM
- IC90: > 10 µM

SMILES: c1ccc(Nc2nc(-c3ccc4c(c3)OCCO4)cs2)nc1
- IC50 (FFLUC_HILL_SLOPE 1.22, FFLUC_R_SQUARED 0.822, PBLUC_HILL_SLOPE 0.789, PBLUC_R_SQUARED 0.792, read-out: LUCIFERASE INFECTION ASSAY - IC50): 0.158 µM
- IC90: 2.55 µM

SMILES: COc1c(Cl)cc([N+](=O)[O-])c(OC)c1C(=O)NC(=O)Nc1cc(Cl)cc(Cl)c1
- IC50 (FFLUC_HILL_SLOPE 1.87, FFLUC_R_SQUARED 0.625, PBLUC_HILL_SLOPE 21.1, PBLUC_R_SQUARED 0.112, read-out: LUCIFERASE INFECTION ASSAY - IC50): 6.88 µM
- IC90: > 7.36 µM

SMILES: COc1ccccc1N1CCN(C(=O)c2cc3cc(Cl)ccc3o2)CC1
- IC50 [1]: > 8.9 µM
- IC90: > 8.9 µM

SMILES: CNc1nc2cnc(Nc3cccc(C(F)(F)F)c3)cc2n1Cc1ccco1
- IC50 (HEPG2TOX_HILL_SLOPE 2.71, HEPG2TOX_R_SQUARED 0.929, read-out: LUCIFERASE INFECTION ASSAY - IC50): > 10 µM
- IC90: > 10 µM

SMILES: CN(C)c1ccc(CNCC2(c3ccnc(-c4ccc(Cl)cc4)c3)CC2)cc1
- IC50 (PBLUC_HILL_SLOPE 2.32, PBLUC_R_SQUARED 0.214, read-out: LUCIFERASE INFECTION ASSAY - IC50): 6.36 µM
- IC90: > 10 µM

SMILES: Cc1cc(/C=C/C(=O)Nc2ccc(S(=O)(=O)NC3=NCCCCC3)cc2)c(C)n1-c1ccccc1
- IC50 (FFLUC_HILL_SLOPE 1.16, FFLUC_R_SQUARED 0.166, PBLUC_HILL_SLOPE 1.89, PBLUC_R_SQUARED 0.7, read-out: LUCIFERASE INFECTION ASSAY - IC50): 2 µM
- IC90: 6.38 µM

SMILES: O=C(Nc1cnc2ccccc2c1)c1cccc(NC(=O)c2cccs2)c1
- IC50 (PBLUC_HILL_SLOPE 0.461, PBLUC_R_SQUARED 0.664, read-out: LUCIFERASE INFECTION ASSAY - IC50): 0.217 µM
- IC90: > 10 µM

SMILES: CCOc1ccc(-n2c(SCC(=O)N(C)Cc3ccccc3)nc3ccccc32)cc1
- IC50 [1]: > 10 µM
- IC90: > 10 µM

SMILES: Nc1nccnc1C(=O)NNC(=O)c1cccc(C(F)(F)F)c1
- IC50 (HEPG2TOX_HILL_SLOPE 7.79, HEPG2TOX_R_SQUARED 0.494, PBLUC_HILL_SLOPE 4.8, PBLUC_R_SQUARED 0.215, read-out: LUCIFERASE INFECTION ASSAY - IC50): 4.44 µM
- IC90: 7.02 µM

SMILES: CC(=O)c1ccc(-c2ccc(C(=O)N3CCc4sccc4C3)o2)cc1
- IC50 (PBLUC_HILL_SLOPE 1.84, PBLUC_R_SQUARED 0.357, read-out: LUCIFERASE INFECTION ASSAY - IC50): 4.1 µM
- IC90: > 10 µM

SMILES: Cc1cc(C(O)=C2Sc3ccccc3C2=O)c(C)n1C
- IC50 [1]: > 10 µM
- IC90: > 10 µM

SMILES: CC(Sc1nc2ccccc2c(=O)n1C)C(=O)Nc1cc([N+](=O)[O-])ccc1Cl (stereo not drawn)
- IC50 (HEPG2TOX_HILL_SLOPE 7.72, HEPG2TOX_R_SQUARED 0.92, read-out: LUCIFERASE INFECTION ASSAY - IC50): > 10 µM
- IC90: > 10 µM

SMILES: CC1(C)CC(Nc2ncnc3sc(-c4ccccc4)cc23)CC(C)(C)N1
- IC50 (PBLUC_HILL_SLOPE 16.4, PBLUC_R_SQUARED 0.0474, read-out: LUCIFERASE INFECTION ASSAY - IC50): 8.84 µM
- IC90: > 10 µM

SMILES: O=[N+]([O-])c1cnc(Sc2nnc(O)n2C2CCCCC2)s1
- IC50 (FFLUC_HILL_SLOPE 1.98, FFLUC_R_SQUARED 0.448, HEPG2TOX_HILL_SLOPE 4.19, HEPG2TOX_R_SQUARED 0.922, PBLUC_HILL_SLOPE 12.6, PBLUC_R_SQUARED 0.344, read-out: LUCIFERASE INFECTION ASSAY - IC50): 8.19 µM
- IC90: 9.75 µM

SMILES: CCCn1c(C)cc(C(=O)CN(C)S(=O)(=O)c2ccc(F)cc2)c1C
- IC50 (HEPG2TOX_HILL_SLOPE 0.529, HEPG2TOX_R_SQUARED 0.126, read-out: LUCIFERASE INFECTION ASSAY - IC50): > 10 µM
- IC90: > 10 µM

SMILES: Cc1cc(/C=N/Nc2nc3ccccc3[nH]2)c(C)n1-c1ccc(Cl)c(C(F)(F)F)c1
- IC50 (FFLUC_HILL_SLOPE 2.14, FFLUC_R_SQUARED 0.676, PBLUC_HILL_SLOPE 2.82, PBLUC_R_SQUARED 0.68, read-out: LUCIFERASE INFECTION ASSAY - IC50): 1.86 µM
- IC90: 4.05 µM

SMILES: Cc1[nH]c2ccccc2c1CC(=O)N1CCc2c(c(C(=O)NCc3cccnc3)nn2CC(C)C)C1
- IC50 (PBLUC_HILL_SLOPE 12.1, PBLUC_R_SQUARED 0.505, read-out: LUCIFERASE INFECTION ASSAY - IC50): 5.48 µM
- IC90: 6.57 µM

SMILES: O=[N+]([O-])c1ccc(N2CCc3ccccc32)cc1
- IC50 (HEPG2TOX_HILL_SLOPE 7.98, HEPG2TOX_R_SQUARED 0.901, PBLUC_HILL_SLOPE 21.8, PBLUC_R_SQUARED 0.45, read-out: LUCIFERASE INFECTION ASSAY - IC50): 13.3 µM
- IC90: > 13.7 µM

SMILES: CCOc1ccc(OCc2ccc(C(=O)NNC3CC(=O)N(CCOC)C3=O)cc2)cc1 (stereo not drawn)
- IC50 [1]: > 10 µM
- IC90: > 10 µM

SMILES: CCN(CC)c1nc(N)c2c(N)nc3c(c2c1C#N)CC(=O)N3c1cc(Cl)cc(Cl)c1
- IC50 (FFLUC_HILL_SLOPE 11.5, FFLUC_R_SQUARED 0.738, PBLUC_HILL_SLOPE 1.44, PBLUC_R_SQUARED 0.624, read-out: LUCIFERASE INFECTION ASSAY - IC50): 4.18 µM
- IC90: > 10 µM

SMILES: C=CCn1c(C)cc(C2=NN=C(NC(C)(C)C)SC2)c1C
- IC50 [1]: 0.366 µM
- IC90: 0.38 µM

SMILES: CC(C)(C)c1cc(C(=O)Nc2ccc(Cl)cc2)n(Cc2ccccc2)n1
- IC50 (PBLUC_HILL_SLOPE 1.52, PBLUC_R_SQUARED 0.257, read-out: LUCIFERASE INFECTION ASSAY - IC50): 6.98 µM
- IC90: > 8.97 µM

SMILES: C=CCn1c(C)cc(C(=O)COC(=O)C(O)(c2ccccc2)c2ccccc2)c1C
- IC50 (PBLUC_HILL_SLOPE 1.92, PBLUC_R_SQUARED 0.565, read-out: LUCIFERASE INFECTION ASSAY - IC50): 1.84 µM
- IC90: 5.78 µM

SMILES: CS(=O)(=O)c1ncc(Cl)c(C(=O)Nc2nc(-c3cc(F)ccc3F)cs2)n1
- IC50 (HEPG2TOX_HILL_SLOPE 13.3, HEPG2TOX_R_SQUARED 0.702, PBLUC_HILL_SLOPE 67.7, PBLUC_R_SQUARED 0.588, read-out: LUCIFERASE INFECTION ASSAY - IC50): 5.95 µM
- IC90: 6.15 µM

SMILES: CS(=O)(=O)c1nc2ccccc2n1CC(=O)c1ccc2c(c1)CCO2
- IC50 (PBLUC_HILL_SLOPE 0.389, PBLUC_R_SQUARED 0.133, read-out: LUCIFERASE INFECTION ASSAY - IC50): > 10 µM
- IC90: > 10 µM

SMILES: CCCCNC(=O)c1c(NC(=O)c2cc(F)ccc2F)nc2ccccn12
- IC50 (HEPG2TOX_HILL_SLOPE 2.83, HEPG2TOX_R_SQUARED 0.745, PBLUC_HILL_SLOPE 13.2, PBLUC_R_SQUARED 0.5, read-out: LUCIFERASE INFECTION ASSAY - IC50): 3.03 µM
- IC90: 3.57 µM

SMILES: O=c1[nH]nc(CSc2ccccn2)c2ccccc12
- IC50 (PBLUC_HILL_SLOPE 1.43, PBLUC_R_SQUARED 0.267, read-out: LUCIFERASE INFECTION ASSAY - IC50): 10 µM
- IC90: > 12.3 µM

SMILES: CC(C)(C)c1cc(/C=C2\C=c3ccccc3=C2O)cc(C(C)(C)C)c1O
- IC50 (FFLUC_HILL_SLOPE 9.15, FFLUC_R_SQUARED 0.521, read-out: LUCIFERASE INFECTION ASSAY - IC50): > 9.47 µM
- IC90: > 9.47 µM

SMILES: O=C(C1CCCCC1)N1N=C2/C(=C/c3ccco3)CCCC2C1c1ccco1 (stereo not drawn)
- IC50 [1]: > 10 µM
- IC90: > 10 µM

SMILES: Cc1cc(C)c(C)c(S(=O)(=O)N2CCC(C(=O)Nc3nnc(-c4ccccc4)o3)CC2)c1C
- IC50 (HEPG2TOX_HILL_SLOPE 7.53, HEPG2TOX_R_SQUARED 0.782, PBLUC_HILL_SLOPE 3.42, PBLUC_R_SQUARED 0.39, read-out: LUCIFERASE INFECTION ASSAY - IC50): 6.89 µM
- IC90: > 10 µM

SMILES: CCc1ccc(-c2nnc(SC(C)C(=O)NC3CCCCC3)[nH]2)cc1 (stereo not drawn)
- IC50 (HEPG2TOX_HILL_SLOPE 1.62, HEPG2TOX_R_SQUARED 0.795, read-out: LUCIFERASE INFECTION ASSAY - IC50): > 10 µM
- IC90: > 10 µM

SMILES: CS(=O)(=O)c1ccc(N2CCN(c3ccnc4cc(Cl)ccc34)CC2)c([N+](=O)[O-])c1
- IC50 (HEPG2TOX_HILL_SLOPE 8.04, HEPG2TOX_R_SQUARED 0.676, PBLUC_HILL_SLOPE 3.39, PBLUC_R_SQUARED 0.378, read-out: LUCIFERASE INFECTION ASSAY - IC50): 4.61 µM
- IC90: 8.81 µM

SMILES: CCO/C=N\C1=C(C#N)C(c2ccc(F)cc2)c2ccc3ccccc3c2O1 (stereo not drawn)
- IC50 [1]: > 8.86 µM
- IC90: > 8.86 µM

SMILES: Cc1cc(C(=O)N2CCc3sccc3C2)c2c(C)noc2n1
- IC50 (PBLUC_HILL_SLOPE 3.72, PBLUC_R_SQUARED 0.0188, read-out: LUCIFERASE INFECTION ASSAY - IC50): > 10 µM
- IC90: > 10 µM

SMILES: CCOC(=O)c1ccc(Oc2nc3ccccc3nc2C(C#N)C(=O)OC)cc1 (stereo not drawn)
- IC50 (PBLUC_HILL_SLOPE 5.75, PBLUC_R_SQUARED 0.407, read-out: LUCIFERASE INFECTION ASSAY - IC50): 5.19 µM
- IC90: 7.6 µM
